Measurements taken from US20240124410A1, “SMALL MOLECULES AND THEIR USE AS MALT1 INHIBITORS” (University of Pittsburgh - Of the Commonwealth System of …, priority 2021, published 2024).

Legend:
ADRB1 = target: T1, ADRB1 (Homo sapiens, UniProt P08588); assay: Eurofins SAFETYscan 78-target panel, off-target effects, ADRB1; type: biochemical; conditions: antagonist / blocker / inhibitor mode
T1 construct: Eurofins
Protocol: (§1) FIG. 9. Table summarizing the Eurofins analysis of potential off-target effects of M1i-124. […] values above 10 μM are generally considered to be acceptable. FIG. 10. Representative hematoxylin and eosin (H&E) staining of organ sections (lung, heart, kidney, liver and adrenal) from control and M1i-124 treated mice described in FIG. 6.
(§2) Studies were performed using the services of Touchstone Biosciences and Eurofins Pharma Discovery Services. […] All blood samples (30-50 ul per sample) were taken via tail vein at 5, 15, and 30 minutes, and 1, 2, 4, 6, 8, and 24 hours after dosing. Blood samples are collected in Greiner MiniCollect K2 EDTA tubes, placed on ice, and within 30 minutes, centrifuged at 15,000 g for 5 minutes to obtain plasma samples. All plasma samples are stored at −70° C. until analysis. Plasma samples were prepared for analysis by LC-MS/MS, and key PK parameters, including terminal half-life (t 112), initial plasma concentration (C0), area under the plasma concentration vs. time curve (AUC), volume of distribution at steady-state (Vss), total plasma clearance (CLp), and mean residence time (MRT), were measured.
(§3) Assay details are available through Eurofins.

nAChR(a4/b2) = target: T2, nAChR(a4/b2) (Homo sapiens, UniProt P17787+P43681); assay: Eurofins SAFETYscan 78-target panel, off-target effects, nAChR(a4/b2); type: biochemical; conditions: antagonist / blocker / inhibitor mode
T2 construct: Eurofins
Protocol: as §1, §2, §3

CNR2 = target: T3, CNR2 (Homo sapiens, UniProt P34972); assay: Eurofins SAFETYscan 78-target panel, off-target effects, CNR2; type: biochemical; conditions: antagonist / blocker / inhibitor mode
T3 construct: Eurofins
Protocol: as §1, §2, §3

CHRM2 = target: T4, CHRM2 (Homo sapiens, UniProt P08172); assay: Eurofins SAFETYscan 78-target panel, off-target effects, CHRM2; type: biochemical; conditions: antagonist / blocker / inhibitor mode
T4 construct: Eurofins
T4 sequence (P08172 1-466): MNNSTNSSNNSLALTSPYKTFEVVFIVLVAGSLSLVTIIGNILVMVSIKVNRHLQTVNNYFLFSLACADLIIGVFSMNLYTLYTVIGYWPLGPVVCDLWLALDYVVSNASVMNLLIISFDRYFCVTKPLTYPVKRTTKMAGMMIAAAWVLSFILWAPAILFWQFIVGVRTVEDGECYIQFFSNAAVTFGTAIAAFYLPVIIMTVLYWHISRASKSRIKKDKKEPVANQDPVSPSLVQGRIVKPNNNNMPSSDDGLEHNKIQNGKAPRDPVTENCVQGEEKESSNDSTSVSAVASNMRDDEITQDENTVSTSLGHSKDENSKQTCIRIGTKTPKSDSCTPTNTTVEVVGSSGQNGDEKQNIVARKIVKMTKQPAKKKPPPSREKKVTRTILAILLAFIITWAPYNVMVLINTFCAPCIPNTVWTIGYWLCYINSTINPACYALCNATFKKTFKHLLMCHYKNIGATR
Protocol: as §1, §2, §3

HRH2 = target: T5, HRH2 (Homo sapiens, UniProt P25021); assay: Eurofins SAFETYscan 78-target panel, off-target effects, HRH2; type: biochemical; conditions: antagonist / blocker / inhibitor mode
T5 construct: Eurofins
Protocol: as §1, §2, §3

[1] = test system: PMA/iono-induced transcription of interleukin 2 (IL-2); assay: IL-2 transcription in Jurkat T cells (quantitative RT-PCR); type: cell-based; conditions: compound at 1 μM
Protocol: The DLBCL cell lines, OCI-Ly1, OCI-Ly3, and OCI-Ly7, were provided by Dr. Mark Minden (University Health Network, Toronto, Ontario, Canada). TMD8 cells were provided by Dr. Louis Staudt (NCI, NIH). OCI-Ly1 and OCI-Ly7 cells were cultured in Iscove's Modified Dulbecco's Medium (IMDM) supplemented with 10% FBS. OCI-Ly3 cells were cultured in IMDM supplemented with 20% FBS. TMD8 and Jurkat T cells were cultured in RPMI1640 medium with 10% FBS. HEK293T cells were cultured in DMEM medium with 10% FBS. All media were supplemented with 100 U/ml penicillin streptomycin. Stimulation of Jurkat cells was conducted by adding 5 ng/ml of phorbol 12-myristatel3 acetate (PMA)(Sigma-Aldrich) and 1μM ionomycin (Calbiochem), or by adding 5-10 μL/mL of ImmunoCult Human CD3/CD28 ([…] Technologies).
Total RNA extraction was performed using RNeasy Plus Mini Kit (Qiagen Cat #74136). 1 ng RNA was transcribed into cDNA using High-Capacity cDNA Reverse Transcription Kit (Applied Biosystems Cat #4368814) according to manufacturer's instructions. RT-PCR reactions were performed using TaqMan gene expression probe sets.

TMD8 ABC-DLBCL cells = assay: Cell proliferation (cell count, trypan blue exclusion), TMD8; type: cell-based; conditions: TMD8, single dose of 1 μM, 12 days
Source text: (§4) Cell number was counted using the trypan blue dye exclusion method with Vi-CELL cell viability analyzer (Beckman Coulter) at days 7, 10, and 12 of treatment with compounds. Cell proliferation was specifically evaluated using the CellTrace Violet reagent (ThermoFisher Cat #C34571) which undergoes dilution with each round of cell division. 1.5×10^6 cells were washed twice in PBS and resuspended in 2 mls of PBS.

OCI-Ly3 ABC-DLBCL cells = assay: Cell proliferation (cell count, trypan blue exclusion), OCI-Ly3; type: cell-based; conditions: OCI-Ly3, single dose of 1 μM, 12 days
Source text: as §4

[2] = test system: IL-6 and IL-10 secretion in OCI-Ly3 cells; assay: IL-6 and IL-10 secretion by OCI-Ly3 cells (ELISA); type: cell-based, human
Protocol: Expression of cytokines from cell culture supernatants was measured 24h after treatment with 0, 0.01, 0.03, 0.1, 0.3, 1, or 3 uM of compounds using the following ELISA kits according to the manufacturer's instructions: Human IL-2 ELISA (BioLegend Cat #431804), Human IL-6 ELISA (BioLegend Cat #430504), and Human IL-10 ELISA (BioLegend Cat #430604).

[3] = test system: MALT1 proteolytic cleavage of RelB and N4BP1; assay: RelB and N4BP1 cleavage assay in Jurkat T cells; type: cell-based; conditions: 20 hours pretreatment, MG132, PMA/iono stimulation

T3 sequence (P34972 whole entry): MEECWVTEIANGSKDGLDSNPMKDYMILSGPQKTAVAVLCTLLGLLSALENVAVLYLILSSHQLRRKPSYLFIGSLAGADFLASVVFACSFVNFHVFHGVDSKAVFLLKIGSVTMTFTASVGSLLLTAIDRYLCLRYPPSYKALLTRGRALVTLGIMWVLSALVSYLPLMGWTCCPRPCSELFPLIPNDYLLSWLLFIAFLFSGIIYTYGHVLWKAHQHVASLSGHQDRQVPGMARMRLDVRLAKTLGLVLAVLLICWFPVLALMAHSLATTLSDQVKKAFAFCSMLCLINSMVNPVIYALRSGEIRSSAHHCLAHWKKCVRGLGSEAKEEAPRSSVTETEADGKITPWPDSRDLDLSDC
T1 sequence (P08588 whole entry): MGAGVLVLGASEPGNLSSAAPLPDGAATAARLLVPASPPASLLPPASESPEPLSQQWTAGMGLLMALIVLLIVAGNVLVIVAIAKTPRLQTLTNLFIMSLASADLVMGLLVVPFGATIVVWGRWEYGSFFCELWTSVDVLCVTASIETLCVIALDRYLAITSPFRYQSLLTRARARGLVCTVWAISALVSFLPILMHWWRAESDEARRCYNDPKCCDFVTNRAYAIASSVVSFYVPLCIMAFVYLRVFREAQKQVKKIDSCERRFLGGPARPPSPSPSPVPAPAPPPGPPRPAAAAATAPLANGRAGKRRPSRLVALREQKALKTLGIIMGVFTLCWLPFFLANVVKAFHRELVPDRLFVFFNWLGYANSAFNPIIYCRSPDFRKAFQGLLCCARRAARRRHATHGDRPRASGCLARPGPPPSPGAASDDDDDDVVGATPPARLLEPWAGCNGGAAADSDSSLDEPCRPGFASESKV
T5 sequence (P25021 whole entry): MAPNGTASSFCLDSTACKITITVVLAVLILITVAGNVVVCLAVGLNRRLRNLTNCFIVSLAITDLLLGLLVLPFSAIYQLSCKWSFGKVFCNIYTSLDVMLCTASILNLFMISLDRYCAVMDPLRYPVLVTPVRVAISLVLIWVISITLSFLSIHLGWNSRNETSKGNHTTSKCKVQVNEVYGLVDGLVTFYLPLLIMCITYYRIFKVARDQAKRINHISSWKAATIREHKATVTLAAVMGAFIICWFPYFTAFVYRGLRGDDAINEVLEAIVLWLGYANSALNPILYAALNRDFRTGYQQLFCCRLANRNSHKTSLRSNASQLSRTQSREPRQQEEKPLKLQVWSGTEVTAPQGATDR
T2 sequence (P43681 29-627 limits assumed): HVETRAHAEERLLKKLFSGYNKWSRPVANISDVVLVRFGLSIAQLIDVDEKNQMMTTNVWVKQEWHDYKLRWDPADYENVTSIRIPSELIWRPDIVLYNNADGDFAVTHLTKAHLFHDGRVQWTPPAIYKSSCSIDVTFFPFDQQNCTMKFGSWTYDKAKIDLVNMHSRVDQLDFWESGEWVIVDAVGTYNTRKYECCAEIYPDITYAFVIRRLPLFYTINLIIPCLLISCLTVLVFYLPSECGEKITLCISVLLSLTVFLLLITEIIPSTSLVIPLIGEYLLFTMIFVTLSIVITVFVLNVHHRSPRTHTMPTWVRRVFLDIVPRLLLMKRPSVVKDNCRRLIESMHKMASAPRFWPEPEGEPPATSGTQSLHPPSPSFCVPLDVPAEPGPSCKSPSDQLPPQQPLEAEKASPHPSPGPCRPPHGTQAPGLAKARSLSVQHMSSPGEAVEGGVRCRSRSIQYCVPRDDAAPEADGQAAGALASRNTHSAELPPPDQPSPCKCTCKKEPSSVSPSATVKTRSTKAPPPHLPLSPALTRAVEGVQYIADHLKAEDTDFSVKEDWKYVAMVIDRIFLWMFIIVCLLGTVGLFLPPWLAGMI
T2 sequence (P17787 26-502): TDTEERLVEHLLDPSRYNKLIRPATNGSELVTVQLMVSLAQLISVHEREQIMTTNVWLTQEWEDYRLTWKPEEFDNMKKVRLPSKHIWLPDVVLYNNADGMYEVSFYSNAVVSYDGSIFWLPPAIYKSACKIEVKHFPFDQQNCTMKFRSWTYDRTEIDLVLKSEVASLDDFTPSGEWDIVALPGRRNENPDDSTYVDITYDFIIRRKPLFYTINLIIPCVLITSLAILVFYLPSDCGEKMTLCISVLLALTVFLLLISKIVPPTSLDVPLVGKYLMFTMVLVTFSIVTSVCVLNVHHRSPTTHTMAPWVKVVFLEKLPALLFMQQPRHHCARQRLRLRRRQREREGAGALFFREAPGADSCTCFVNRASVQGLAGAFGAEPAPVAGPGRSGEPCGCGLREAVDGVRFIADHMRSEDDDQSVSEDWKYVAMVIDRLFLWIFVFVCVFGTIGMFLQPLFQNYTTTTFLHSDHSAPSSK

Compound | IC50 (ADRB1) | IC50 (nAChR(a4/b2)) | IC50 (CNR2) | IC50 (CHRM2) | IC50 (HRH2) | Transcription of interleukin 2 (IL-2) [1] | Proliferation (TMD8 ABC-DLBCL cells) | Proliferation (OCI-Ly3 ABC-DLBCL cells) | IL-6 secretion [2] | IL-10 secretion [2] | MALT1 proteolytic cleavage of N4BP1 (ratio cleaved/full-length) [3] | MALT1 proteolytic cleavage of RelB (ratio cleaved/full-length) [3]
O=S(=O)(NCc1ccc2c(c1)OCO2)c1ccc(Cc2ccc(S(=O)(=O)NCc3ccc4c(c3)OCO4)cc2)cc1 [M1i-124] | 800 nM | 4000 nM | 9900 nM | 1200 nM | 2300 nM |  |  |  |  |  |  | 
COc1ccc(CNS(=O)(=O)c2ccc(Cc3ccc(S(=O)(=O)NCc4ccc(OC)cc4)cc3)cc2)cc1 [M1i-124d1] |  |  |  |  |  | inhibit | inhibit the proliferation | inhibit the proliferation | inhibit IL-6 and IL-10 secretion in a concentration-dependent manner | inhibit IL-6 and IL-10 secretion in a concentration-dependent manner | inhibit | inhibit
